Measured values as given in patent US10766890B2, “Hepatitis B core protein modulators” (Assembly Biosciences, Inc., priority 2015, dated 2020).

What was measured:
HBV = assay: Viral load production in AD38 cells, quantitative PCR of the core sequence in supernatant; assay type: cell-based; conditions: 10 μM compound, 6 days at 37° C., supernatant qPCR vs DMSO control; for activity at 10 µM: Hepatitis B virus, 144 h, read-out: AD38 Viral Load (%) (VL with cmpd/VL in DMSO control) at 10 μM
Procedure: (§1) Example 63: Assay Measuring Activity of Compounds on Viral Production in and on Viability of AD38 Cells
(§2) AD38 cells were then re-suspended with 10 mL of Treatment Medium and counted. Wells of a collagen coated 96-well NUNC microtiter plate were seeded at 50,000/well in 180 μL of Treatment Medium, and 20 μL of in treatment media with either 10% DMSO (Control) or a 10× solution of compound in 10% DMSO was added. Plates were incubated for 6 days at 37° C.
Viral load production was assayed by quantitative PCR of the core sequence. […] The PCR mixture was incubated at 45° C. for 5 minutes, then 95° C. for 10 min, followed by 40 cycles of 10 seconds at 95° C. and 20 seconds at 60° C. Viral load was quantitated against known standards by using ViiA™ 7 Software. Viral load in the supernatant from wells with treated cells were compared against viral load in supernatant from DMSO control wells (≥3 per plate).

AD38 cells = assay: Viability of AD38 cells, Promega CellTiter-Glo; assay type: cell-based; conditions: 10 μM compound, 6 days, CellTiter-Glo luminescence, controls being 100%
Procedure: as §1, §2
At the end of compound treatment period cell viability was assessed using a Promega CellTiter-Glo protocol. All supernatant was removed the previously treated 96-well microtiter plate, and 50 μL Tetracycline-free treatment medium (DMEM/F12 (1:1), 1×Pen/step (cat#: 30-002-CL, Mediatech, Inc), with 2% FBS, Tet-system approved (cat#: 631106, Clontech), and 1% DMSO was added back to each well. Another 50 μL of CellTiter-Glo reagent solution (Promega, G7573) was then added at room temperature and the contents mixed for 2 minutes on an orbital shaker to induce cell lysis. This was followed by incubation at room temperature for 10 minutes to stabilize the luminescent signal. The luminescence was recorded for 0.2 seconds per well on a Tecan multimode platereader (Infinite M1000 pro). The luminescent signal from each well was normalized against that of untreated (DMSO) control wells. All results in Table 3 were reported with percent viability (with controls being 100%).

Compound	activity at 10 µM (HBV)	AD38 Viability Normalized Result (cmpd/DMSO %) at 10 μM (AD38 cells)	AD38 Viral Load (%) (VL with cmpd/VL in DMSO control) at 10 μM (HBV)
O=C(NCc1cccc(Oc2cccc(O)c2)c1)c1ccc2c(c1)NC(=O)c1ccccc1O2 [Compound 744, N-(3-(3-hydroxyphenoxy)benzyl)-11-oxo-10,11-dihydrodibenzo[b,f][1,4]oxazepine-8-carboxamide]	62.9%	108%	
O=C(NCc1cccc(-c2ccc(F)cc2)c1)c1ccc2c(c1)NC(=O)c1ccccc1S2(=O)=O [Compound 566]	0.6%	95%	
COc1ccc(Oc2cccc(CNC(=O)c3ccc4c(c3)NC(=O)c3ccccc3S4(=O)=O)c2)cc1 [Compound 811-A, N-(3-(4-methoxyphenoxy)benzyl)-11-oxo-10,11-dihydrodibenzo[b,f][1,4]thiazepine-8-carboxamide 5,5-dioxide]	1.9%	86%	
O=C(NCc1ccc(-c2cccc(O)c2)cc1)c1ccc2c(c1)NC(=O)c1ccccc1O2 [Compound 720]	48.5%	102%	
O=C(NCc1cccc(Sc2cccc(O)c2)c1)c1ccc2c(c1)NC(=O)c1ccccc1O2 [Compound 742, N-(3-((3-hydroxyphenyl)thio)benzyl)-11-oxo-10,11-dihydrodibenzo[b,f][1,4]oxazepine-8-carboxamide]	12.7%	89%	
O=C(NCc1ccc(-c2ccc3[nH]cnc3c2)cc1)c1ccc2c(c1)NC(=O)c1ccccc1S2(=O)=O [Compound 644]	31.2%	89%	
COc1ccc(Cc2cccc(CNC(=O)c3ccc4c(c3)NC(=O)c3ccccc3O4)c2)cc1 [Compound 741-A]	42.4%	89%	
O=C(NCc1cccc(-c2ccc(O)cc2)c1)c1ccc2c(c1)NC(=O)c1ccccc1S2(=O)=O [Compound 773]	0.6%	87%	
O=C(NCc1cccc(Sc2ccc(O)cc2)c1)c1ccc2c(c1)NC(=O)c1ccccc1O2 [Compound 743, N-(3-((4-hydroxyphenyl)thio)benzyl)-11-oxo-10,11-dihydrodibenzo[b,f][1,4]oxazepine-8-carboxamide]	6.8%	102%	
O=C(NCc1cccc(-c2cnn[nH]2)c1)c1ccc2c(c1)NC(=O)c1ccccc1S2(=O)=O [Compound 570]	8.7%	112%	
Cl.NCc1ccc(-c2ccc(CNC(=O)c3ccc4c(c3)NC(=O)c3ccccc3S4(=O)=O)cc2)cc1 [Compound 652, N-((4′-(aminomethyl)-[1,1′-biphenyl]-4-yl)methyl)-11-oxo-10,11-dihydrodibenzo[b,f][1,4]thiazepine-8-carboxamide 5,5-dioxide hydrochloride]	36.4%	86%	
O=C(NCCC(c1ccccc1)N1CCCC1)c1ccc2c(c1)NC(=O)c1ccccc1S2(=O)=O (centres unmarked) [Compound 472]	32.6%	105%	
CN(Cc1ccc(-c2ccc(O)cc2)cc1)C(=O)c1ccc2c(c1)NC(=O)c1ccccc1S2(=O)=O [Compound 662]	20.8%	34%	
N#Cc1cccc(-c2ccc(CNC(=O)c3ccc4c(c3)NC(=O)c3ccccc3O4)cc2)c1 [Compound 728-A]	66.8%	120%	
O=C(NCc1cccc(Oc2ccc(O)cc2)c1)c1ccc2c(c1)NC(=O)c1ccccc1S2(=O)=O [Compound 811, N-(3-(4-hydroxyphenoxy)benzyl)-11-oxo-10,11-dihydrodibenzo[b,f][1,4]thiazepine-8-carboxamide 5,5-dioxide]	1.2%	95%	
O=C(NCc1ccc(-c2ccc3[nH]ccc3c2)cc1)c1ccc2c(c1)NC(=O)c1ccccc1S2(=O)=O [Compound 647]	0.4%	102%	
CCC(CNC(=O)c1ccc2c(c1)NC(=O)c1ccccc1S2(=O)=O)c1ccccc1 (centres unmarked) [Compound 530]	5%	92%	

Compound	activity at 10 µM (HBV)	AD38 Viability Normalized Result (cmpd/DMSO %) at 10 μM (AD38 cells)	AD38 Viral Load (%) (VL with cmpd/VL in DMSO control) at 10 μM (HBV)
O=C(NCc1ccc(-c2ccc3[nH]cnc3c2)cc1)c1ccc2c(c1)NC(=O)c1ccccc1O2 [Compound 729]	16.3%	97%	
CN(C)S(=O)(=O)c1ccc(CCNC(=O)c2ccc3c(c2)NC(=O)c2ccccc2N3)cc1 [Compound 510]	21.4%	92%	
O=C(NCc1cccc(Sc2cccc(O)c2)c1)c1ccc2c(c1)NC(=O)c1ccccc1S2(=O)=O [Compound 812, N-(3-((3-hydroxyphenyl)thio)benzyl)-11-oxo-10,11-dihydrodibenzo[b,f][1,4]thiazepine-8-carboxamide 5,5-dioxide]	5.1%	99%	
O=C(NCc1ccc(-c2ccc(O)cc2)cc1)c1ccc2c(c1)NC(=O)c1ccccc1S2(=O)=O [Compound 638]	8.6%	7%	
O=C(NCCOc1ccc(F)cc1)c1ccc2c(c1)NC(=O)c1ccccc1S2(=O)=O [Compound 469]	4.1%	100%	
COc1ccc(Sc2cccc(CNC(=O)c3ccc4c(c3)NC(=O)c3ccccc3S4(=O)=O)c2)cc1 [Compound 813, N-(3-((4-methoxyphenyl)thio)benzyl)-11-oxo-10,11-dihydrodibenzo[b,f][1,4]thiazepine-8-carboxamide 5,5-dioxide]	1.2%	44%	
CN(C)CCOc1cccc(-c2ccc(CNC(=O)c3ccc4c(c3)NC(=O)c3ccccc3O4)cc2)c1 [Compound 717]	170%	0%	
11-oxo-N-(4-(4-((2,2,2-trifluoroacetyl)-λ^4-azanyl)butoxy) phenethyl)-10,11-dihydrodibenzo[b, f][1,4]thiazepine-8-carboxamide 5,5-dioxide [Compound 482]		101%	16.3%
COc1ccc(-c2ccc(CNC(=O)c3ccc4c(c3)NC(=O)c3ccccc3S4(=O)=O)cc2)cn1 [Compound 775, N-(4-(6-methoxypyridin-3-yl)benzyl)-11-oxo-10,11-dihydrodibenzo[b,f][1,4]thiazepine-8-carboxamide 5,5-dioxide]	2.6%	93%	
O=C(NCc1cccc(Cc2cccc(O)c2)c1)c1ccc2c(c1)NC(=O)c1ccccc1S2(=O)=O [Compound 808, N-(3-(3-hydroxybenzyl)benzyl)-11-oxo-10,11-dihydrodibenzo[b,f][1,4]thiazepine-8-carboxamide 5,5-dioxide]	3%	90%	
NC(=O)c1ccc(-c2ccc(CNC(=O)c3ccc4c(c3)NC(=O)c3ccccc3S4(=O)=O)cc2)cc1 [Compound 765]		103%	59.4%
O=C(NCc1ccc(-c2ccc3[nH]ncc3c2)cc1)c1ccc2c(c1)NC(=O)c1ccccc1S2(=O)=O [Compound 678]	1.4%	76%	
CCN1c2ccc(C(=O)NCCc3ccc(S(=O)(=O)N(C)C)cc3)cc2NC(=O)c2ccccc21 [Compound 501]	5.5%	91%	
O=C(NCCCCOc1ccc(CCNC(=O)c2ccc3c(c2)NC(=O)c2ccccc2S3(=O)=O)cc1)OCc1ccccc1 [Compound 481]	0.5%	91%	
COc1cccc(Oc2cccc(CNC(=O)c3ccc4c(c3)NC(=O)c3ccccc3O4)c2)c1 [Compound 744-A, N-(3-(3-methoxyphenoxy)benzyl)-11-oxo-10,11-dihydrodibenzo[b,f][1,4]oxazepine-8-carboxamide]	8.9%	103%	
O=C(NCc1ccc(-c2cncnc2)cc1)c1ccc2c(c1)NC(=O)c1ccccc1S2 [Compound 537]	51.5%	100%	
O=C(NCCc1ccc(-c2ccccc2)cc1)c1ccc2c(c1)NC(=O)c1ccccc1N2 [Compound 508]	59.1%	103%	
